The text below walks through data of paper doi:10.1101/2020.05.29.122762v3 (biorxiv, 2020).

As usually defined, the Kd is the equilibrium constant for the complex coming apart.

The target in assay [1] is type PO SadP-6407(31-328). As to conditions: PBS, 25 °C.
The target of assay [2] is type PN SadP(125-329) (Streptococcus suis, UniProt G5DSS1, N271D). Description: biochemical.
Assay [3] has as its target T1, type PN SadP-D282(31-328) (Streptococcus suis, UniProt G5DSS1).
T1 sequence (G5DSS1 31-328): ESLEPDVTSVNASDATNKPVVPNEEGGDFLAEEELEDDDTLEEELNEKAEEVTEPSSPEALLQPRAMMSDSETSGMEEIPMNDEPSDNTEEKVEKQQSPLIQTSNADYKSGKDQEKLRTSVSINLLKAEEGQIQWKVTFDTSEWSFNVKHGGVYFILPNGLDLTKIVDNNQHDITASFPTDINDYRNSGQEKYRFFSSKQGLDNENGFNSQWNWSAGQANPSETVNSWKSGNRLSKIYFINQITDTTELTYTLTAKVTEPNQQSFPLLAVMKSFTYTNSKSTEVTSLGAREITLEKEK
Conditions: PBS, 25 °C; n=1.14.

For assay [4], the target named is T2, type PN SadP(125-329) (Streptococcus suis, UniProt G5DSS1).
T2 sequence (G5DSS1 125-329): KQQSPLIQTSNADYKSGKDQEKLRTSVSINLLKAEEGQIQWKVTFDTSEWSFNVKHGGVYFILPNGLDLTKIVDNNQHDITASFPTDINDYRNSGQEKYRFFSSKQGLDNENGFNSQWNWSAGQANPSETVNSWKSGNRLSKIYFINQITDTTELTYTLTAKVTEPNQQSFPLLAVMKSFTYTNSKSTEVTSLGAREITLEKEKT
Kind of assay: biochemical.

Like-named read-outs stand apart in the source and are kept apart here.

As for `C[Si](C)(C)CCO[C@@H]1O[C@H](CO)[C@H](O[C@H]2O[C@H](CO)[C@H](O)[C@H](O)[C@H]2O)[C@H](O)[C@H]1O` [Galα1–4Gal TMSEt glycoside], the dissociation constant Kd came out at 3.5 ± 1.6 µM in assay [1] (n=0.85) and 22.7 ± 7.2 µM at type PN SadP(125-329) [2].
As for `CC(=O)N[C@H]1[C@H](O[C@H]2[C@@H](O)[C@@H](CO)O[C@H](O[C@@H]3[C@H](O)[C@@H](O)[C@H](OCC[Si](C)(C)C)O[C@@H]3CO)[C@@H]2O)O[C@H](CO)[C@H](O)[C@@H]1O` [GalNAcβ1–3Galα1–4Gal TMSEt glycoside], the Kd in assay [3] came to 33.7 ± 3.5 µM; at type PN SadP(125-329) [4], 36 ± 4.8 µM; in assay [1] (n=0.13, poorly defined fit), 940 ± 680 µM.
